This passage reports IC50 and inhibition results from article PMC6287599, “2,6-Bis(2-Benzimidazolyl)Pyridine (BBP) Is a Potent and Selective Inhibitor of Small Conductance Calcium-Activated Potassium (SK) Channels” (Frontiers in Pharmacology, 2018).

One experiment addresses hSK3 (Homo sapiens, UniProt Q9UGI6). As to the kind of experiment: Automated patch clamp (QPatch 16), whole cell, stable HEK293 cell line expressing hSK3. In kind it is cell-based. Particulars: HEK stable line, 400 nM free intracellular calcium, mean ± SEM, n = 9. As to the method: Three different stable HEK293 cell lines expressing hSK1, hSK2 or hSK3 (NeuroSearch A/S, Ballerup, Denmark) and a CHO stable cell line expressing hERG (University of Copenhagen, Copenhagen, Denmark) were used for automated patch clamp. These cells were cultivated and prepared as previously described (Skarsfeldt et al., [2016]).
Automated patch clamp (QPatch 16, Sophion, Denmark) on SK-expressing HEK293 cell lines was conducted as previously described (Simó-Vicens et al., [2017b]). Briefly, SK currents were elicited by voltage-ramps starting at −80 mV and finishing at +80 mV from a holding potential of 0 mV. Extracellular solution contained 0.1 mM CaCl2, 3 mM MgCl2, 154 mM KCl, 10 mM HEPES and 10 mM glucose with pH 7.4. Intracellular solution for SK experiments contained 8.106 mM CaCl2 (final free calcium concentration of 400 nM), 1.167 mM MgCl2, 10 mM EGTA, 154 mM KCl, 10 mM HEPES, 31.25/ 10 mM KOH/EGTA and 15 mM KOH with pH 7.2. Automated patch clamp on hERG-expressing CHO cell line was performed also as previously described (Skarsfeldt et al., [2016]).
Individual IC50 values were calculated for each cell with the built-in nonlinear fit log(inhibitor) vs. normalized response equation:
Where Y is the normalized response, from 100, corresponding to current recorded during saline perfusion, down to 0, corresponding to currents recorded in the presence of bicuculline methiodide 100 μM. […]
In general terms: In patch-clamp work, channel activity is measured electrically.

A further experiment has as its target hSK1 (Homo sapiens, UniProt Q92952). The experiment in a line: Manual whole cell patch clamp, HEK293 transiently transfected with hSK1. The experiment is classed as cell-based. The settings on record: BBP 1 μM, compared to positive control bicuculline methiodide 100 μM, n = 6, read-out: Inhibition of hSK1 current. How it is done:
HEK293 cells were transiently co-transfected with the plasmid of interest (hBK, hSK1, hSK2, hSK3 WT, rSK3 H491N, or hIK) and eGFP using standard Lipofectamine™ 2000 (Thermo Fisher Scientific, Waltham, Massachussets, USA) transfection protocols. After transfection, cells were incubated overnight before the experiments.
Manual patch clamp experiments were performed at room temperature in the whole cell configuration with a HEKA EPC9 amplifier and the Patchmaster software (HEKA Elektronik, Ludwigshafen, Germany). All currents were elicited every 2 s using an incremental 200 ms voltage-ramp protocol starting at −80 mV and finishing at +80 mV from a holding potential of 0 mV. […] Currents were measured using the same solutions as the ones used for automated patch clamp, with symmetrical potassium concentrations and a free intracellular calcium concentration of 400 nM. […]
To assess the effect of BBP on other calcium-activated potassium channels (hBK, hSK3 WT, rSK3 H491N, and hIK), each individual current was first normalized to its cell size using membrane's capacitance (pA/pF) before statistical analysis. […] Statistical significance between saline and the effect of both BBP and the corresponding reference compound was determined for each channel using one-way ANOVA analysis. […]

In general, IC50 refers to the concentration that gives 50% inhibition. A word on the inhibition: it is the drop in the measured response relative to a control, in per cent. On to `c1cc(-c2nc3ccccc3[nH]2)nc(-c2nc3ccccc3[nH]2)c1` [BBP, 2,6-Bis(2-benzimidazolyl)pyridine], for which the IC50 at hSK3 turned out to be 400 ± 200 nM. The inhibition at 1 µM on hSK1 came out at 93.7 ± 1.6%.
